The record followed here is paper PMC8041284, “Tunable Methacrylamides for Covalent Ligand Directed Release Chemistry” (Journal of the American Chemical Society, 2021).

As usually defined, the IC50 is the midpoint of a concentration-inhibition curve. One may read the half-life as how long it takes for the measured level to halve. Higher therefore signals slow decline. As a reminder, the inhibition is the change of the read-out against control, counted positive when it falls.

For data set [1], the system named is Mino cells. Put plainly: In-gel fluorescence activity-based profiling (in situ proteomic labeling). Type of data set: cell-based. Particulars: Mino cells treated for 2 h, TAMRA-azide click. How it is done: Mino cells were treated for 2 h with either 0.1% DMSO or the indicated concentrations of IA-alkyne, 2a, 2b, and 2c. The cells were lysed with RIPA buffer (Sigma), and protein concentration was determined using the BCA protein assay (Thermo Fisher Scientific). Lysates were then diluted to 2 mg/mL in PBS and clicked to TAMRA-azide (click chemistry tools). Click reaction was performed using a final concentration of 40 μM TAMRA-azide, 3 mM CuSO4, 3 mM tris(3-hydroxypropyltriazolylmethyl)amine (THPTA, Sigma), and 3.7 mM sodium L-ascorbate (Sigma) in a final volume of 60 μL. The samples were incubated at 25 °C for 2 h. A 20 μL amount of 4× LDS sample buffer (NuPAGE, Thermo Fischer Scientific) was added followed by a 10 min incubation at 70 °C. The samples were then loaded on a 4–20% Bis-Tris gel (SurePAGE, GeneScript) and imaged using a Typhoon FLA 9500 scanner.

In data set [2] the target is BTK kinase domain (Homo sapiens, UniProt Q06187). Put plainly: Kinetic labeling of BTK by intact protein LC/MS. Format: binding.
Data set [3] deals with T1, EGFR (Homo sapiens, UniProt P00533). Put plainly: In vitro kinase activity assay (Nanosyn). Format: biochemical. Particulars: for IC50: 5 μM ATP.
Target sequence in this assay (P00533 25-1210): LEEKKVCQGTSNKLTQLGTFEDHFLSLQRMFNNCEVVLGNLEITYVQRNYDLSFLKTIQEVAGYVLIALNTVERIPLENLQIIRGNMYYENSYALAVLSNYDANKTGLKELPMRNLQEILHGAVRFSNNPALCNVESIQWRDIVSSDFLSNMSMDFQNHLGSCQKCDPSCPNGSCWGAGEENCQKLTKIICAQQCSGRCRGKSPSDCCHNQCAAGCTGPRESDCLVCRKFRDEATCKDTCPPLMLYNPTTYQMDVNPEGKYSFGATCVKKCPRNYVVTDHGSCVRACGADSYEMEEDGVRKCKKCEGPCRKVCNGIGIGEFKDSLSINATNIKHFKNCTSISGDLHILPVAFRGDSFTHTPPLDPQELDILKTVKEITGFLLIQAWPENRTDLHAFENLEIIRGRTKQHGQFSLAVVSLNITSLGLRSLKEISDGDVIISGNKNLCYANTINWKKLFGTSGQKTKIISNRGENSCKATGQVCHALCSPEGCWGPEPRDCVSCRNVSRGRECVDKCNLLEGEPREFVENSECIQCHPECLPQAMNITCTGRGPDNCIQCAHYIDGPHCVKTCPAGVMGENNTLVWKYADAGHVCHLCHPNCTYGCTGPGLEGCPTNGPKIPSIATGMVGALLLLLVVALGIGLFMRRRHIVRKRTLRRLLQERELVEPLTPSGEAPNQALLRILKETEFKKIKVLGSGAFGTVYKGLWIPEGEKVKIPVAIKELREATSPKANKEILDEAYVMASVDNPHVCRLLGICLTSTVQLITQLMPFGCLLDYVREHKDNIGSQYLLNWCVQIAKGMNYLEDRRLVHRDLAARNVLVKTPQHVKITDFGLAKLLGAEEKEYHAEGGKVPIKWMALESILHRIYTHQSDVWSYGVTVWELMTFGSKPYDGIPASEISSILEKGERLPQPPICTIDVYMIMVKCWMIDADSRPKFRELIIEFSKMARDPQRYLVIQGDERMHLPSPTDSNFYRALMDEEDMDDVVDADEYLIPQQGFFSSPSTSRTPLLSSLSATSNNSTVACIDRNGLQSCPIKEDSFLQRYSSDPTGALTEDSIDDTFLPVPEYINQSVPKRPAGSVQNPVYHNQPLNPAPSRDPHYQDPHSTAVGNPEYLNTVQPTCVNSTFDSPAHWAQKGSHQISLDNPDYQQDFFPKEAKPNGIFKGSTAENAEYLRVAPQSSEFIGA
Description: (§2) Kinase reactions are assembled in 384-well plates (Greiner) in a total volume of 20 μL. Test compounds were diluted in DMSO to a final concentration, while the final concentration of DMSO in all assays was kept at 1%. The compounds were incubated with the kinases for 2 h. […] The reaction was initiated by 2-fold dilution into a solution containing 5 μM ATP and 1 μM substrate in the kinase buffer
in 100 mM HEPES, pH 7.5, 0.1% BSA, 0.01% Triton X-100, 1 mM DTT, 10 mM MnCl2.
initiated by 2-fold dilution into a solution containing 5 μM ATP and 1 μM substrate in the kinase buffer.
The test system of data set [4] is primary mouse B cells. Put plainly: B-cell response experiment (anti-IgM activation, CD86 by flow cytometry). Format: cell-based. Particulars: representative FACS plot, concentration not given. (In general: A flow cytometer gives signals particle by particle.)
The target in data set [5] is wild-type BTK (Homo sapiens, UniProt Q06187). The data set can be described thus: In vitro kinase activity assay (Nanosyn).
Description: as §2
In data set [6] the target is BLK (Homo sapiens, UniProt P51451). The data set can be described thus: In vitro kinase activity assay (Nanosyn).
Description: as §2
Data set [7] has as its target T2, BMX (Homo sapiens, UniProt P51813).
T2 sequence (P51813 1-675): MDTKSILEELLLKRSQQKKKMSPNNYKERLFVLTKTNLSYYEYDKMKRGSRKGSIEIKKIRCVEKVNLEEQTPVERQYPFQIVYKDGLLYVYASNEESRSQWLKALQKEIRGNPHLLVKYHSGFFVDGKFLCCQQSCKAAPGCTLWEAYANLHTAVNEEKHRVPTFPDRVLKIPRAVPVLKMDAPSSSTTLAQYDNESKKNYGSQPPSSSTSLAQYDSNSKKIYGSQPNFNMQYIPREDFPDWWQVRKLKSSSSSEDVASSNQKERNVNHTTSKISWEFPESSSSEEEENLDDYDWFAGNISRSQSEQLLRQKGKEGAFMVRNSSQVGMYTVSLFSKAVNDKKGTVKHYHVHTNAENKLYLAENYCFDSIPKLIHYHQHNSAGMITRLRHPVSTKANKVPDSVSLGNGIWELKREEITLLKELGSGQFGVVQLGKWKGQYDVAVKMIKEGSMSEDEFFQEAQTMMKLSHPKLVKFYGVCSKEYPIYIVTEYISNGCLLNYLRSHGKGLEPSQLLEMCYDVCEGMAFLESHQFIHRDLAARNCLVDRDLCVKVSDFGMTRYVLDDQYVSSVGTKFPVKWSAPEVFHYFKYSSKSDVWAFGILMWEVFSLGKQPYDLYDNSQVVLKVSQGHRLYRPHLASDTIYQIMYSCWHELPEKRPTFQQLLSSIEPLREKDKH
The data set can be described thus: In vitro kinase activity assay (Nanosyn).
Description: as §2

Data set [8] deals with ERBB2 (Homo sapiens, UniProt P04626). Put plainly: In vitro kinase activity assay (Nanosyn).
Description: as §2
The target in data set [9] is T3, ITK (Homo sapiens, UniProt Q08881).
T3 sequence (Q08881 1-620): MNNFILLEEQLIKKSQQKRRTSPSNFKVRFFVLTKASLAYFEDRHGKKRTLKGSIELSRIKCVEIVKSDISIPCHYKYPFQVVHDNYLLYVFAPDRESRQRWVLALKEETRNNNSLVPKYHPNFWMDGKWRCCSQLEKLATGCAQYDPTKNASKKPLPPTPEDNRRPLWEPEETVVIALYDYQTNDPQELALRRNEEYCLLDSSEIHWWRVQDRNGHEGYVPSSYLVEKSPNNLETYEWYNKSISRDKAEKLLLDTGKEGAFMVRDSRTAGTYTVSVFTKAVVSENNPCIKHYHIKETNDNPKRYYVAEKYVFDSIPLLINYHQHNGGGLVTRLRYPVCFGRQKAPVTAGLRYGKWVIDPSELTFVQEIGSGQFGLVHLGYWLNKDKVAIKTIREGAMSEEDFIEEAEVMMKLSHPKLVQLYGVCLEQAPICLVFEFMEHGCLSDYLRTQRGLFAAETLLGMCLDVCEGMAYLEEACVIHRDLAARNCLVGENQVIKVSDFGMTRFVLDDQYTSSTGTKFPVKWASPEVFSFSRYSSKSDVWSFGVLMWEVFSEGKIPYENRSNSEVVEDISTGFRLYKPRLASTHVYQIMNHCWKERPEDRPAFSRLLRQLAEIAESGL
Put plainly: In vitro kinase activity assay (Nanosyn).
Description: as §2

A short description of data set [10]: GSH reactivity assay for ibrutinib derivatives (LC/MS). Type of data set: physicochemical. Particulars: 5 mM GSH in phosphate buffer/DMF 9:1, 100 μM compound, buffer pH 8.0:DMF 9:1, 37 °C.
Description: LC/MS runs were performed on a Waters ACUITY UPLC class H instrument, in positive ion mode using electrospray ionization. […] The column was held at 40 °C, and the autosampler at 10 °C. Mobile phase A was 0.1% formic acid in the water, and mobile phase B was 0.1% formic acid in acetonitrile. The run flow was 0.3 mL/min. […] The column was held at 40 °C, and the autosampler at 10 °C. Mobile solution A was 0.1% formic acid in the water, and mobile phase B was 0.1% formic acid in acetonitrile.
All solvents were bubbled with argon.
Data set [11] has as its target T4, BTK (Homo sapiens, UniProt Q06187). The data set can be described thus: Fluorescence intensity measurement of CoLDR turn-on probe. Format: binding. Particulars: 2 μM probe, 2 μM BTK.
In data set [12] the target is BSA (Bos taurus, UniProt P02769). The data set can be described thus: Turn-on fluorescence selectivity control with BSA. Particulars: 10 μM BSA with 2 μM 3k. Format: binding. An excerpt:
The fact that a specific leaving group is released as a function of selective binding of a target protein can be used to functionalize irreversible inhibitors, for example as turn-on fluorescent probes. To assess the applicability and generality of this approach, we chose three therapeutic targets for which acrylamide inhibitors are available: BTK, EGFR, and K-RAS^G12C as model systems. Initially, we treated 3k (Figure 6A) with BTK, measured the released coumarin fluorescence, and validated the labeling via LC/MS (Figure 6B,C). […] We could also […] the rate of the reaction by using 20:1 equiv of protein:probe (Figure S16). […] The release can also be inhibited by preincubation of BTK with iodoacetamide alkyne (IAA; Figure S17B).
Figure S17. […] A. 10 μM BSA with 2
B. 2 μM BTK fully labeled with IAA (red) compared to 2 μM non labeled BTK (blue) with 2 μM 3k. The lack of signal for the labeled BTK indicated the fluorescence is triggered by a free cysteine.
(1 picture or pasted object on this page, not shown here)

In data set [13] the target is T4, BTK. The data set can be described thus: Chemiluminescence emission of probe 3l with BTK. Particulars: 2 μM probe, 2 μM BTK.
The target of data set [14] is T1, EGFR. Put plainly: Fluorescence intensity measurement of CoLDR turn-on probe. Format: binding. Further details: EGFR kinase domain was a generous gift from Prof; Michael Eck; gift from Prof. Conditions: 2 μM probe, 2 μM protein. The procedure:
(§1) A 2 μM concentration of BTK, EGFR, or K-RAS^G12C was added to 2 μM 3k, 4b, or 5a, respectively. […] Each condition was done in triplicates in 20 mM Tris pH 8.0 and 50 mM NaCl for BTK and K-RAS^G12C and in 50 mM Tris pH 8.0 and 100 mM NaCl for EGFR at 32 °C. Fluorescent measurements were taken every 2 min for 2 h for BTK and EGFR and every 10 min for 15 h for K-RAS^G12C. At the end of the measurements, samples were injected directly into the LC/MS for labeling quantification. K-Ras^G12C was expressed and purified as previously described,[69] EGFR kinase domain was a generous gift from Prof. Michael Eck.
Target sequence in this assay (P00533 712-979 limits assumed): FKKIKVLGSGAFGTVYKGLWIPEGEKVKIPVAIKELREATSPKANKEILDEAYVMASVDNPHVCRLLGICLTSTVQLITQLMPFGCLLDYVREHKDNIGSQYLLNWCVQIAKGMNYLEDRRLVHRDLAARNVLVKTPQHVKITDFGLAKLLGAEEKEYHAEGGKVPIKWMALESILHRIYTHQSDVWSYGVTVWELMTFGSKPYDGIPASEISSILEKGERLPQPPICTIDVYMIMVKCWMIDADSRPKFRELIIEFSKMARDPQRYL

In data set [15] the target is K-Ras^G12C (Homo sapiens, UniProt P01116, G12C). Described as above. Type of data set: binding. Particulars: 2 μM probe, 2 μM protein. The procedure: as §1
The target in data set [16] is T4, BTK. The data set can be described thus: HTS with the chemiluminescent probe 3l (%BTK binding inhibition). Particulars: 10 μM compound, 0.75 μM BTK.
The target in data set [17] is T4, BTK. The data set can be described thus: biochemical. Conditions: read-out: BTK inhibition (%), 0.75 uM BTK, […] probe 3l, 15 min preincubation.
The mark [18] stands for this setting: BTK IC50, in vitro kinase activity assay.
[19] abbreviates: BTK IC50, rounded, 2 h preincubation, 5 μM ATP.

Entries after “also recorded” stand apart in the source; their conditions may differ. Where two headings read alike, the source gives them in different places.

Sequence of wild-type BTK (Q06187 whole entry): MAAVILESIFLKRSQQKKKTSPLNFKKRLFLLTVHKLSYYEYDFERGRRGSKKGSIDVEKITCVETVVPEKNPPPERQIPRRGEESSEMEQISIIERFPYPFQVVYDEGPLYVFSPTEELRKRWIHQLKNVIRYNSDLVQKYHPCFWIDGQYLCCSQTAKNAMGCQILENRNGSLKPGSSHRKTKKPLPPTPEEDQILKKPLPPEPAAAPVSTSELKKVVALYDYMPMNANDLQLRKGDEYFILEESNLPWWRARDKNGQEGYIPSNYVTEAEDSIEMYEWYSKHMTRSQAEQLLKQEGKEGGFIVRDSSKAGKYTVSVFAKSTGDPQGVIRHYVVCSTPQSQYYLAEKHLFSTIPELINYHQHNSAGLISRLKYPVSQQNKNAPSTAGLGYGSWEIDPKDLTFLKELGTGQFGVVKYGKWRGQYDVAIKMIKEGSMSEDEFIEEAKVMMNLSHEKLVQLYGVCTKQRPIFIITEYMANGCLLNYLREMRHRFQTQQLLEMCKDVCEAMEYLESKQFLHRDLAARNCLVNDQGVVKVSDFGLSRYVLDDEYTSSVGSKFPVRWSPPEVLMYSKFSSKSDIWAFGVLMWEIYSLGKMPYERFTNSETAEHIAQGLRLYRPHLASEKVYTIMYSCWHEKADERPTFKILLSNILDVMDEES
T4 sequence (Q06187 402-655 limits assumed): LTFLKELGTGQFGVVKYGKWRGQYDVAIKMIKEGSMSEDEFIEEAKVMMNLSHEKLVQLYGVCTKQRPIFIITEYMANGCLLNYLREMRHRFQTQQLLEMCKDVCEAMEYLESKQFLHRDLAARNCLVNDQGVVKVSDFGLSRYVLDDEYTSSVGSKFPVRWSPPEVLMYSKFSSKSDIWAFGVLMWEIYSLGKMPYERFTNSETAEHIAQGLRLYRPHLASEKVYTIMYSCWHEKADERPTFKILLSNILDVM
Sequence of BLK (P51451 whole entry, species assumed): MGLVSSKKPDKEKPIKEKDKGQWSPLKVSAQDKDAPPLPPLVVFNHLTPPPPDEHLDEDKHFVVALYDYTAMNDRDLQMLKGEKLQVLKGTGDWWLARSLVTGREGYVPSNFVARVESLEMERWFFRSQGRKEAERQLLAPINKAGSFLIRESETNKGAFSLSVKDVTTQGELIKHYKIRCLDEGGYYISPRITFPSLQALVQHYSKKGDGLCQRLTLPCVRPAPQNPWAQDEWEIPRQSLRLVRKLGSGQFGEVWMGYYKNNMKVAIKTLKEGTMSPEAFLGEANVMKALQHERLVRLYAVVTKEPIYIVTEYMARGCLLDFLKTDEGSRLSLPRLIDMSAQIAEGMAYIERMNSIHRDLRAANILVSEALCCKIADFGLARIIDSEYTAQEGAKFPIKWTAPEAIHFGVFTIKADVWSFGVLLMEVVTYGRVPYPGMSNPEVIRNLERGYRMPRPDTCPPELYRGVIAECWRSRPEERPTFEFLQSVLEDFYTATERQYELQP
Sequence of ERBB2 (P04626 23-1255, species assumed): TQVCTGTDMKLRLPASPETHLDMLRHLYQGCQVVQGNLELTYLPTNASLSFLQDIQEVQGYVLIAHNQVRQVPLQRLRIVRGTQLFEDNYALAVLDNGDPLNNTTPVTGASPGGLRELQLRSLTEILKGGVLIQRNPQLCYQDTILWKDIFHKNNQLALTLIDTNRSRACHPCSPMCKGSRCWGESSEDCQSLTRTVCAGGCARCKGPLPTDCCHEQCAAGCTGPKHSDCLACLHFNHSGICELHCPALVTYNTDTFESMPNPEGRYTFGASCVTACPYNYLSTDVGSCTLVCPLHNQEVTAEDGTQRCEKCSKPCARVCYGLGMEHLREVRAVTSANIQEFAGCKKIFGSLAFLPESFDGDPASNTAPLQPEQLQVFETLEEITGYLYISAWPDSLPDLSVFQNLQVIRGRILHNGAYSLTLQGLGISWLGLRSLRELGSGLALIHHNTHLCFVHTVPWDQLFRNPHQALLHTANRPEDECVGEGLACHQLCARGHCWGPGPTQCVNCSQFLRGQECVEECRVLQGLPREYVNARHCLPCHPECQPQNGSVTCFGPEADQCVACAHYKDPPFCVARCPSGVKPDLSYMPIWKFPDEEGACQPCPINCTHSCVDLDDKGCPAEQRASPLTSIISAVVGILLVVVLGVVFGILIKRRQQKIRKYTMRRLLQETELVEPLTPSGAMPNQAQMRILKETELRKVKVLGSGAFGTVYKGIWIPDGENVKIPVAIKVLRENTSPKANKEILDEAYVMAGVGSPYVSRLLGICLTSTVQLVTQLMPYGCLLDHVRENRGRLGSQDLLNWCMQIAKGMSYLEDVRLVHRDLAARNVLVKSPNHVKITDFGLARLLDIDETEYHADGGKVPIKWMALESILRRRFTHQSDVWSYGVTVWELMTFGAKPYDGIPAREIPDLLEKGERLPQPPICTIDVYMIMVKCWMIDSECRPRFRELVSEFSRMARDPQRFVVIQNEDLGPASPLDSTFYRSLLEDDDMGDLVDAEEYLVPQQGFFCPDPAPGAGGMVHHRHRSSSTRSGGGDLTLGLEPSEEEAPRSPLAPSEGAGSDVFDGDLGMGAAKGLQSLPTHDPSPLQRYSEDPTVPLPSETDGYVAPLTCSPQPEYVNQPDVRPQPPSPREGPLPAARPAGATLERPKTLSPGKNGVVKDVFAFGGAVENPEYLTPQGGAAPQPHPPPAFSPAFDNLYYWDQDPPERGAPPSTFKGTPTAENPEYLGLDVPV
Sequence of BSA (P02769 25-607): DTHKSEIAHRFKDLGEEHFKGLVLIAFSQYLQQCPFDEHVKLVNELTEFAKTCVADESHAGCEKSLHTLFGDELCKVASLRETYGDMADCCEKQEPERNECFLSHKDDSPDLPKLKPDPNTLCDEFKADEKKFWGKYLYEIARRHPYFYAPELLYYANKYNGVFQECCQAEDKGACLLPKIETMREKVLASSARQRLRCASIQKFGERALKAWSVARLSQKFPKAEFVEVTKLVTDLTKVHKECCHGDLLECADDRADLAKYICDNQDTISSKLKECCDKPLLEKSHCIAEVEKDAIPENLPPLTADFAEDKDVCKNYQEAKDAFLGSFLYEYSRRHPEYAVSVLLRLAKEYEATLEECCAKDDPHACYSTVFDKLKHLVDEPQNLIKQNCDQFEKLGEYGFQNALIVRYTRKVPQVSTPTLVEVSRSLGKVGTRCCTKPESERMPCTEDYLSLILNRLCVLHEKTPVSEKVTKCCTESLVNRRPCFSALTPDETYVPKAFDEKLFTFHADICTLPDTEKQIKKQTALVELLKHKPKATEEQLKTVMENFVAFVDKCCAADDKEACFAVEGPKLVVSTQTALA
Sequence of BTK kinase domain (Q06187 402-655 limits assumed): as the sequence (Q06187 402-655 limits assumed) above

In the case of `C#CCCNC(=O)C(=C)CN(C)c1ccccc1` [2c], the “in situ proteomic labeling (in-gel fluorescence)” value in data set [1] was “completely inactive”.

For the compound `C=C(CN1CCCCC1)C(=O)N1CCC[C@@H](n2nc(-c3ccc(Oc4ccccc4)cc3)c3c(N)ncnc32)C1` [3c], in [2], the BTK labeling mechanism result was “exclusively through addition with no substitution product”. Further, the IC50 in [3] (rounded, 2 h preincubation) is 7 nM; in data set [5] (setting [18]), under 0.1 nM; in data set [5] (setting [19]), 0.1 nM; in data set [6] it was 0.1 nM; in data set [7] it was 0.3 nM; in [8], 33 nM. Also, half-maximal inhibition in [9] (IC50) required 43 nM. Also, the “B220+ cells-activated (CD86 positive)” value in [4] came to 81.6%.

As for `C=C(CN(C)c1ccccc1)C(=O)N1CCC[C@@H](n2nc(-c3ccc(Oc4ccccc4)cc3)c3c(N)ncnc32)C1` [3d], the half-life at 100 μM in data set [10] is over 100 h. The compound also registered an IC50 in data set [5] of 5.6 nM.

On to `C=C(CNCc1ccccc1)C(=O)N1CCC[C@@H](n2nc(-c3ccc(Oc4ccccc4)cc3)c3c(N)ncnc32)C1` [3e], for which the half-life at 100 μM in data set [10] is over 100 h. Also, the BTK labeling mechanism entry in [2] is reported as “exclusively through addition with no substitution product”. Besides, the IC50 in [3] (rounded, 2 h preincubation) is 3 nM; in data set [5] (setting [18]), under 0.1 nM; in [5] (setting [19]), 0.1 nM; in [6] it was 0.1 nM; in data set [7] it was 0.4 nM; in [8], 13 nM. In data set [9], the IC50 is 30 nM. Further, the EGFR/BTK in [3] (selectivity ratio of IC50) amounted to 36. Moreover, the “B220+ cells-activated (CD86 positive)” value in data set [4] is given as 77.3%. In addition, the BLK/BTK in [6] (selectivity ratio of IC50) amounted to 1. Further, in data set [7] (selectivity ratio of IC50), the BMX/BTK worked out at 5. In addition, in data set [8] (selectivity ratio of IC50), the ERBB2/BTK was 169. The ITK/BTK in data set [9] (selectivity ratio of IC50) came out at 383.

As for `C=C(COc1ccc2ccc(=O)oc2c1)C(=O)N1CCC[C@@H](n2nc(-c3ccc(Oc4ccccc4)cc3)c3c(N)ncnc32)C1` [3k], in data set [11], the “increase of fluorescence intensity at 435 nm upon addition of BTK” value was determined as 30 fold and the “time to saturation of fluorescence” value is at most 10 min. In [12], the “turn-on fluorescence with BSA” value is given as “no reaction; also recorded: does not result in increased fluorescence”. In [5] (BTK IC50, 0.6 nM BTK, 5 μM ATP, Figure 4C), this compound displayed an IC50 of 1 nM.

For the compound `C=C(COc1c(/C=C/C(=O)OC)ccc(C2(OC)OOC23C2CC4CC(C2)CC3C4)c1Cl)C(=O)N1CCC[C@@H](n2nc(-c3ccc(Oc4ccccc4)cc3)c3c(N)ncnc32)C1` (stereo partly shown) [3l], in [13], the “chemiluminescence enhancement by BTK (total photon counts vs probe alone)” value worked out at 90 fold and the “time to maximum chemiluminescence signal” value is recorded as at most 20 min.

In [3] (EGFR kinase activity assay, 0.75 nM EGFR), `C=C(COc1ccc2ccc(=O)oc2c1)C(=O)Nc1cc2c(Nc3ccc(F)c(Cl)c3)ncnc2cc1OC` [4b] had an IC50 of 3.3 nM. Moreover, the “released coumarin fluorescence with EGFR” value in [14] is “significant increase in fluorescence intensity”.

Turning to `C=C(COc1ccc2ccc(=O)oc2c1)C(=O)N1CCN(c2nc(=O)n(-c3c(C)ccnc3C(C)C)c3nc(-c4c(O)cccc4F)c(F)cc23)[C@@H](C)C1` [5a], the “released coumarin fluorescence with K-RAS^G12C” value in data set [15] is on record as “significant increase in fluorescence intensity”.

In the case of `COc1c/c(=C2\C=c3ccccc3=N2)[nH]/c1=C\c1[nH]c(C)cc1C` [PCM-0094986], in [16], the “BTK inhibition (%)” value came out at 133.1%. Moreover, in data set [17], the inhibition at 10 µM was 133%.

In the case of `Cc1cc(-c2ccc(N=Nc3ccc4c(S(=O)(=O)O)cc(S(=O)(=O)O)c(N)c4c3O)c(C)c2)ccc1N=Nc1ccc2c(S(=O)(=O)O)cc(S(=O)(=O)O)c(N)c2c1O` [PCM-0214845], the “BTK inhibition (%)” value in data set [16] is given as 125.3%. The inhibition at 10 µM in data set [17] was determined as 125%.
